Source: patent US4774381A, “Herbicide resistant tobacco” (E. I. Du Pont de Nemours and Company, priority 1985, dated 1988)

Tests used:
[1] = system: acetolactate synthase (ALS), Isolate 16 (S4/S4) extract; assay: ALS activity assay in cell extracts; format: biochemical, Nicotiana tabacum; details: for Uninhibited activity (%) in the Presence of Chlorsulfuron: Isolate 16 (S4/S4)
Experimental: Cell suspension cultures of normal (H1) and homozygous mutant (Isolate 16) cell lines were washed in C1 liquid medium. After washing, cells were extracted in a 100 mM potassium phosphate buffer (pH 7.5) containing 0.5 mM MgCl2, 1 mM sodium pyruvate, 0.5 mM thiamine pyrophosphate, 10 micromolar flavine-adenine dinucleotide (FAD) and 10 percent (by volume) glycerol. Polyclar AT (BDH Chemicals Ltd) was added to a final concentration of 250 mg per gram fresh weight of tissue. After centrifugation at 27,000xg for 15 minutes at 4°, an equal volume of a saturated solution of amminium sulfate was added to the supernatant fraction. The resultant precipitate (representing a 0 to 50 percent ammonium sulfate fraction) was redissolved in 100 mM potassium phosphate buffer (pH 7.5) containing 0.5 mM MgCl2, 1 mM sodium pyruvate, and salts were removed by passage through a Sephadex G-25 (Pharmacia PD-10) column.
ALS activity was assayed in a total volume of 500 microliters containing 100 microliters of the column eluate, 65 mM potassium phosphate buffer (pH 7.5) containing 10 mM MgCl2, 40 mM sodium pyruvate, 250 micromolar thiamine pyrophosphate, 23 micromolar FAD, and 1, 5, 10, 50, 100, 500 or 1000 ppb chlorsulfuron or sulfometuron-methyl. After incubation at 30° for 90 minutes, 250 microliters of 6N H2 SO4 was added to each assay tube, and the tubes were incubated at 55° for 10 minutes to terminate the enzymatic reaction and achieve complete conversion of acetolactate to acetoin. Acetoin content was then measured by a modification of the procedure described by Westerfield, J. Biol. Chem. 161:495 (1945). To each tube was added sequentially 100 microliters 50 percent NaOH, 150 microliters 0.5 percent creatine, and 150 microliters 5 percent alpha-napthol (in 2.5N NaOH). Color development was accelerated by incubation at 55° for 10 minutes. Tubes were then centrifuged, and the optical density was read at 530 nm. Background optical densities, which were subtracted from the optical density values of the reactions, were determined for each extract from parallel assays to which the enzyme extract was added after the addition of 6N H2 SO4. Protein concentrations were measured with Bio-Rad Protein Assay reagent with bovine serum albumin as a standard. Data points and specific activities, which are set forth below and in FIG. 2, represent the average values of at least three independent determinations. ALS activities are presented in FIG. 2 as percent activity in the absence of herbicide.
Responses to chlorsulfuron were determined for ALS activities in extracts of cells suspension cultures derived from nine individuals that differed with resepct to the S4 mutation. As described above, these individuals were produced by self-fertilization of an S4/+ heterozygote, and their genotypes were established by means of progeny analysis. Callus and plant phenotypes were determined by growth responses of cell cultures and seedlings, respectively, on herbicide-supplemented medium. […] In contrast, all individuals homozygous for the S4 mutation contained a highly resistant form of the enzyme. […] The correlation between both callus and plant phenotype and the response of ALS activity in vitro to the herbicide is both absolute and quantitative.

[2] = system: callus cultures derived from plants that carried the S4 mutation; assay: Callus growth on herbicide-supplemented medium; format: cell-based, Nicotiana tabacum; details: herbicide at 5 parts per billion (ppg) (14 nM)
Text: A plant heterozygous for the S4 mutation was constructed by a series of backcrosses of a plant regenerated from a herbicide-resistant tobacco cell line with plants of the parental variety (N. tabacum cv. Xanthi). Self-fertilization of this heterozygous individual yielded homozygous mutant, heterozygous, and homozygous normal progeny in the ratio of 1 to 2 to 1, respectively, which is expected for segregation of a single semidominant nuclear allele. The genotypes of these progeny plants were confirmed by analysis of a subsequent generation. Callus cultures were established as previously described from several of the genetically defined isolates produced by self-fertilization of the S4/+ heterozygote. […] Cell suspension cultures were initiated from these callus cultures and from the parental haploid cell line (H1) by transferring callus to a liquid C1 medium in which 2,4-dichlorophenoxyacetic acid (2 mg/L) had been substituted for napthaleneacetic acid and from which agar had been omitted. ALS activity was then assayed in extracts prepared from these cell suspension cultures as follows.

[3] = system: C4/C4 homozygous mutant cell line; assay: Callus growth test; format: cell-based, Nicotiana tabacum; details: 10 ppb herbicide
Experimental: (§1) Callus growth tests were conducted substantially according to the following procedure. Approximately 50 mg callus tissue, grown on non-selective media, was spread over 7 cm diameter paper filter discs (Whatman No. 1), which were placed on the medium surface of petri dishes containing C1 agar media and varying concentrations of chlorsulfuron. The resulting cultures were incubated for 14 days at 25±1°, under fluorescent lamps programmed to provide a 16-hour photoperiod per day. At the conclusion of the incubation period, tissue was scraped from each filter disc and weighed. The final fresh weights were recorded, and means and standard errors of the means determined for all cases. The significance of differences between responses of individual cell lines to various concentrations of chlorsulfuron was determined at a probability level of 5% by a t-test for populations having different standard deviations, as described by Snedecor, et al., Statistical Methods (Iowa State University Press, Ames, Iowa, (1967), pp. 114-116).
(§2) A series of experiments was performed to investigate further the cross-resistance of various resistant cell lines to other herbicidally-effective sulfonamides. First, several homozygous mutant cell lines were evaluated for resistance to sulfometuron-methyl and chlorsulfuron by callus growth tests, performed substantially similarly to the callus growth experiments previously described. In these experiments, callus cultures were derived from R1 plants, which constitute the progeny produced by self-fertilization of a regenerated plant.

[4] = system: Normal (H1) cell line; assay: Callus growth test; format: cell-based, Nicotiana tabacum; details: for % of control fresh weight / Fr. Wt.: 10 ppb herbicide, H1 (Table 4)
Experimental: as §1, §2

[5] = system: S1/S1 homozygous mutant cell line; assay: Callus growth test; format: cell-based, Nicotiana tabacum; details: 10 ppb herbicide
Experimental: as §1, §2

[6] = system: S4/S4 homozygous mutant cell line; assay: Callus growth test; format: cell-based, Nicotiana tabacum; details: for % of control fresh weight / Fr. Wt.: 10 ppb herbicide, S4/S4 (Table 4)
Experimental: as §1, §2

[7] = system: C3/C3 homozygous mutant cell line; assay: Callus growth test; format: cell-based, Nicotiana tabacum; details: 10 ppb herbicide
Experimental: as §1, §2

[8] = system: S5/S5 homozygous mutant cell line; assay: Callus growth test; format: cell-based, Nicotiana tabacum; details: 10 ppb herbicide
Experimental: as §1, §2

[9] = system: S6/S6 homozygous mutant cell line; assay: Callus growth test; format: cell-based, Nicotiana tabacum; details: 10 ppb herbicide
Experimental: as §1, §2

COC(=O)c1ccccc1S(=O)(=O)NC(=O)Nc1nc(C)cc(C)n1 [Sulfometuron-methyl, sulfometuron-methyl]
resistance of mutant ALS activity to inhibition ([1]; mutant cell line versus parental activity): more resistant than the parental activity
growth on supplemented medium [2]: capable of growth
% of control fresh weight [3]: 83.9%
Fr. Wt. [3]: 3473 ± 323
% of control fresh weight [4]: 1.2%
Fr. Wt. [4]: 32 ± 2
activity at 0.001 µg/mL ([4]; Nicotiana tabacum, 336 h, sulfometuron-methyl 1 ppb, Normal (H1) (Table 6), read-out: % of fresh weight at 0 ppb): 1.4%
activity at 0.01 µg/mL ([4]; Nicotiana tabacum, 336 h, sulfometuron-methyl 10 ppb, Normal (H1) (Table 6), read-out: % of fresh weight at 0 ppb): 1%
Fr. wt. ([4]; sulfometuron-methyl 1 ppb, Normal (H1) (Table 6)): 39 ± 2 mg
Fr. wt. ([4]; sulfometuron-methyl 10 ppb, Normal (H1) (Table 6)): 29 ± 1 mg
% of control fresh weight [5]: 6.4%
Fr. Wt. [5]: 172 ± 14
% of control fresh weight [6]: 33.6%
Fr. Wt. [6]: 1105 ± 80
growth of S4/S4 mutant cell line ([6]; 200 ppb sulfometuron-methyl): completely inhibits growth
activity at 0.01 µg/mL ([6]; Nicotiana tabacum, 336 h, sulfometuron-methyl 10 ppb, S4/S4 (Table 6), read-out: % of fresh weight at 0 ppb): 34%
Fr. wt. ([6]; sulfometuron-methyl 10 ppb, S4/S4 (Table 6)): 1105 ± 80 mg
% of control fresh weight [7]: 62.6%
Fr. Wt. [7]: 1369 ± 63
% of control fresh weight [8]: 13.0%
Fr. Wt. [8]: 344 ± 55
% of control fresh weight [9]: 26.5%
Fr. Wt. [9]: 887 ± 92

COc1nc(C)nc(NC(=O)NS(=O)(=O)c2ccccc2Cl)n1 [Chlorsulfuron, chlorsulfuron]
growth on supplemented medium [2]: capable of growth
% of control fresh weight [3]: 83.5%
Fr. Wt. [3]: 3453 ± 231
% of control fresh weight [4]: 1.3%
Fr. Wt. [4]: 33 ± 2
% of control fresh weight [5]: 11.5%
Fr. Wt. [5]: 309 ± 34
% of control fresh weight [6]: 96.5%
Fr. Wt. [6]: 3171 ± 260
inhibition at 0.028 µM ([6]; Nicotiana tabacum, 10 ppb (28 nM), homozygous mutant cell line, read-out: growth inhibited (percent)): < 5%
% of control fresh weight [7]: 86.7%
Fr. Wt. [7]: 1896 ± 119
% of control fresh weight [8]: 27.5%
Fr. Wt. [8]: 725 ± 95
% of control fresh weight [9]: 32.1%
Fr. Wt. [9]: 1076 ± 108
